Experimental data as given in the NIST ThermoML archive (doi:10.1016/j.fluid.2014.04.019).

Assay: xn = mol fraction of the nth substance listed
Conditions: 101 kPa, Liquid

OCCOCCO [diethylene glycol] + CN(C)C=O
Conditions | kinematic viscosity, 298.15 K [m2/s] | kinematic viscosity, 303.15 K [m2/s] | kinematic viscosity, 308.15 K [m2/s] | kinematic viscosity, 313.15 K [m2/s] | kinematic viscosity, 318.15 K [m2/s] | mass density, 298.15 K [kg/m3] | mass density, 303.15 K [kg/m3] | mass density, 308.15 K [kg/m3] | mass density, 313.15 K [kg/m3] | mass density, 318.15 K [kg/m3]
x2 = 0 | 2.76e-05 | 2.13e-05 | 1.68e-05 | 1.45e-05 | 1.12e-05 | 1113 | 1109.2 | 1106.1 | 1103 | 1099.3
x2 = 0.0714 | 1.96e-05 | 1.53e-05 | 1.19e-05 | 1.07e-05 | 8.43e-06 | 1104.1 | 1100 | 1096.7 | 1093.4 | 1089.5
x2 = 0.1393 | 1.57e-05 | 1.24e-05 | 9.67e-06 | 8.49e-06 | 6.68e-06 | 1094.9 | 1090.8 | 1087.3 | 1083.9 | 1079.8
x2 = 0.2041 | 1.26e-05 | 1.01e-05 | 8.08e-06 | 7.39e-06 | 5.77e-06 | 1085.9 | 1081.9 | 1078.2 | 1074.6 | 1070.3
x2 = 0.2683 | 1.02e-05 | 8.29e-06 | 6.7e-06 | 6.18e-06 | 4.88e-06 | 1076.7 | 1072.6 | 1068.7 | 1065.1 | 1060.7
x2 = 0.3266 | 8.33e-06 | 6.84e-06 | 5.59e-06 | 5.2e-06 | 4.16e-06 | 1068.1 | 1063.9 | 1059.9 | 1056.2 | 1051.7
x2 = 0.3834 | 6.84e-06 | 5.68e-06 | 4.69e-06 | 4.4e-06 | 3.54e-06 | 1059.4 | 1055.2 | 1051 | 1047.3 | 1042.7
x2 = 0.4384 | 5.66e-06 | 4.76e-06 | 3.98e-06 | 3.74e-06 | 3.06e-06 | 1050.9 | 1046.5 | 1042.2 | 1038.5 | 1033.9
x2 = 0.4917 | 4.71e-06 | 4e-06 | 3.38e-06 | 3.2e-06 | 2.64e-06 | 1042.3 | 1037.9 | 1033.5 | 1029.7 | 1024.9
x2 = 0.5429 | 3.94e-06 | 3.38e-06 | 2.88e-06 | 2.75e-06 | 2.29e-06 | 1033.8 | 1029.4 | 1024.8 | 1021 | 1016.2
x2 = 0.5865 | 3.4e-06 | 2.93e-06 | 2.53e-06 | 2.41e-06 | 2.03e-06 | 1026.4 | 1022 | 1017.3 | 1013.4 | 1008.6
x2 = 0.6394 | 2.83e-06 | 2.47e-06 | 2.16e-06 | 2.07e-06 | 1.76e-06 | 1017.2 | 1012.7 | 1007.9 | 1004 | 999.1
x2 = 0.6819 | 2.44e-06 | 2.15e-06 | 1.89e-06 | 1.82e-06 | 1.56e-06 | 1009.5 | 1005 | 1000.1 | 996.2 | 991.2
x2 = 0.7294 | 2.08e-06 | 1.85e-06 | 1.64e-06 | 1.59e-06 | 1.37e-06 | 1000.7 | 996.1 | 991.1 | 987.1 | 982.1
x2 = 0.7721 | 1.8e-06 | 1.62e-06 | 1.44e-06 | 1.39e-06 | 1.22e-06 | 992.5 | 987.9 | 982.8 | 978.6 | 973.6
x2 = 0.813 | 1.57e-06 | 1.42e-06 | 1.28e-06 | 1.23e-06 | 1.09e-06 | 984.5 | 979.7 | 974.5 | 970.3 | 965.2
x2 = 0.8531 | 1.38e-06 | 1.25e-06 | 1.14e-06 | 1.1e-06 | 9.94e-07 | 976.4 | 971.5 | 966.3 | 962.1 | 956.9
x2 = 0.891 | 1.22e-06 | 1.12e-06 | 1.03e-06 | 9.92e-07 | 8.99e-07 | 968.5 | 963.6 | 958.3 | 954.1 | 948.9
x2 = 0.9288 | 1.08e-06 | 1e-06 | 9.23e-07 | 8.88e-07 | 8.16e-07 | 960.2 | 955.4 | 950 | 945.8 | 940.7
x2 = 0.9648 | 9.67e-07 | 9.04e-07 | 8.37e-07 | 8.06e-07 | 7.44e-07 | 952.2 | 947.6 | 942.3 | 937.9 | 932.6
